Source: publication PMC6429087, “Identification of Leishmania major UDP-Sugar Pyrophosphorylase Inhibitors Using Biosensor-Based Small Molecule Fragment Library Screening” (Molecules, 2019)
Like-named read-outs stand apart in the source and are kept apart here. Values belong to the compound of their own block, whether it stands above or below them.

How the values were obtained:
[1] = molecular target: T1, LmUSP (Leishmania major, UniProt D3G6S4); experiment: HPLC-based enzyme activity assay, LmUSP (UDP-Gal production); format: biochemical; conditions: for inhibition at 500 µM: 500 µM compound, 10% DMSO, read-out: inhibition of LmUSP activity (UDP-Gal production) compared to DMSO control; for IC50: 95% confidence intervals, concentrations 7 µM to 500 µM
Description: (§1) Compounds were tested at a concentration of 500 µM with 20 nM enzyme in an high-performance liquid chromatography (HPLC)-based assay at a final reaction volume of 100 µL. The DMSO concentration in the reaction was kept at 10%. The reaction buffer consisted of 10 mM Tris-HCl pH 8.0, 2 mM MgCl2, 10 mM NaCl, 0.005 U of inorganic pyrophosphatase (Thermo Fisher Scientific, Vilnius, Lithuania), and 1 mM Dithiothreitol (DTT) (for LmUSP and LmUGP only). Protein was incubated with the inhibitors and UTP (final concentration of 0.8 mM in reaction) for 30 min at room temperature, before the addition of the reaction buffer. […] The samples were spun down and the supernatants applied to a Dionex CarboPac™ PA10 column (Thermo Fisher Scientific, Sunnyvale, CA, USA). UDP-Gal or UDP-Glc (products) were separated from UTP (substrate), UMP, and UDP (both, UTP hydrolysis products) with a NaCl gradient elution ranging from 0 to 500 mM NaCl over 13 min at 0.6 mL/min. Absorption of the uracil moiety was detected at 260 nm. The peak area of UDP-Gal or UDP-Glc in reactions with inhibitors was compared to a control containing 10% DMSO. Protein concentrations were calculated from the measured UV-absorbance at 280 nm (Implen NanoPhotometer N60, Implen GmbH, München, Germany), and the proteins’ individual extinction coefficients were calculated using the online ProtParam tool (http://web.expasy.org/protparam/). […] Corresponding IC50 values were calculated by using nonlinear regression analysis with variable slope, in GraphPad Prism version 4.00 (GraphPad Software, San Diego, CA, USA).

[2] = molecular target: T2, hUGP (Homo sapiens, UniProt Q16851); experiment: HPLC-based enzyme activity assay, hUGP; format: biochemical; conditions: 10% DMSO; for inhibition of hUGP (in words): 500 µM / high compound concentration; for decrease of hUGP activity: 500 µM compound
T2 construct: made in house
T2 sequence (Q16851 1-508): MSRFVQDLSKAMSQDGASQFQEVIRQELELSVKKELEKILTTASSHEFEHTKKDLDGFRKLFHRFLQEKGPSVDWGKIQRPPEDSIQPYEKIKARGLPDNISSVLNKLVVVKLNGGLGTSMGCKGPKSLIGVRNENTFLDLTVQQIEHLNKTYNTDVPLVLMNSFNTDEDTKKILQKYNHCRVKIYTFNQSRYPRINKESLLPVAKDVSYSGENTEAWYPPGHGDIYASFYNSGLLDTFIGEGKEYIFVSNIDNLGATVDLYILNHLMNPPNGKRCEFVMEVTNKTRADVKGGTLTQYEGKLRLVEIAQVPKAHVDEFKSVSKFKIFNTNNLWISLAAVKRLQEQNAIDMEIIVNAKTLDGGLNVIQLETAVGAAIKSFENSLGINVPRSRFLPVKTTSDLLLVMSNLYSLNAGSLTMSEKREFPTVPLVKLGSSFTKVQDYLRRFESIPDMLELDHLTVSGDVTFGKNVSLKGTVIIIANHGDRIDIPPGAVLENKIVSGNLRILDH
Description: as §1

[3] = molecular target: LmUGP (Leishmania major, UniProt Q4QDU3); experiment: HPLC-based enzyme activity assay, LmUGP (UDP-Glc production); format: biochemical; conditions: for inhibition at 500 µM: 500 µM compound, 10% DMSO; for IC50: 95% confidence intervals, concentrations 7 µM to 500 µM
Description: as §1

[4] = molecular target: T1, LmUSP; experiment: Bio-layer interferometry (BLI) binding to biotinylated LmUSP on Super Streptavidin biosensors; conditions: for Primary Binding Response: BLI primary screen, fragment 200 µM, 200 µM UTP in running buffer
Description: A vector containing the His(6)-biotin acceptor peptide (BAP) tag was kindly provided by Prof. Mike Ferguson from the University of Dundee. The BAP tag was inserted in the XbaI and NdeI restrictions site of the previously described pET22b-LmUSP [21]. The plasmid with insert was then transformed into the E. coli BL21(DE3) expression strain, and LmUSP was expressed and purified, as described previously. Exactly 2 mg of TEV protease was added to cleave off the His tag. The protein was dialyzed in 3 × 1 L Buffer C (50 mM TRIS pH 8.0, 150 mM NaCl, 10 mM MgCl2). A concentration of 100 µM D-Biotin, 500 µM ATP, and […] BirA enzyme were added to the protein and incubated for 18 hr for biotinylation. The sample was concentrated to 11 mL, using a Vivaspin 20 30 kDa PES centrifugal concentrator (Sartorious, Stonehouse, United Kingdom). The protein was loaded onto a Superdex 200 XK26/60 equilibrated with Buffer C on the AKTA Pure at 4 °C. The eluted monomeric protein was then concentrated to 0.98 mg/mL using a Vivaspin 20 30 kDa PES centrifugal concentrator, and used for loading onto super streptavidin (SSA) biosensors (Fortebio, Shanghai, China, Part No. 18-5057, Lot No. 1612162).
The loading response to SSA biosensors was measured to find the optimal protein concentration to be used for the screen. Briefly, biosensor tips were hydrated in assay buffer (50 mM Tris pH 8.0, 150 mM NaCl, 10 mM MgCl2) for a minimum of 5 min before being sequentially transferred to assay wells containing 1) assay buffer (60 s) to establish the baseline, 2) protein at 12.5, 25, or 50 µg/mL (900 s) to measure protein loading, and 3) assay buffer to assess the reversibility of protein binding to the sensor.
For fragment screening, 16 SSA biosensors were prepared by loading LmUSP (12.5 µg/mL) for 900 s; free streptavidin sites were then blocked with biocytin (10 µg/mL) for 120 s, and finally washed in buffer W (50 mM Tris pH 8.0, 150 mM NaCl, 10 mM MgCl2, 200 µM UTP) for 60 s. In parallel, another 16 SSA sensors were loaded with 10 µg/mL biocytin alone, which acts as a quenching agent to block streptavidin sites on the sensor surface, and then washed with buffer W. These were used as reference sensors.
Initial screening was performed with DDU fragment set (965 fragments) at a single point concentration of 200 µM. The assay consisted of a 60 s baseline step, a 60 s association step, and a 60 s dissociation step. The assay was repeated with the streptavidin blocked control biosensors. Response levels for each compound were calculated by baseline subtraction, and the subtraction of the reference responses from the LmUSP responses. From the initial putative hits, compounds were further validated in a […] concentration series using 3-fold dilutions of each fragment ranging from 500 µM to 2.05 µM. Data were processed, and kinetic parameters were calculated, using the ForteBio software. A visual inspection of curves alongside steady state fitting was used to identify fragments of interest.

[5] = molecular target: T1, LmUSP; conditions: read-out: Km value of UTP; cited from earlier work
[6] = system: O=P(O)(O)O[C@H]1O[C@H](CO)[C@H](O)[C@H](O)[C@H]1O; experiment: purified protein, by the assay type; conditions: 0.8 mM UTP, 25 °C, pH 8.0
[7] = BLI 7-point concentration series 2 µM to 500 µM, steady state fitting, read-out: Estimated KD

Compound: O=C(Cn1cnc2ccccc2c1=O)NCCc1c[nH]c2ccc(F)cc12 [#8E]
IC50 [1]: 40.4 to 46.3 µM | inhibition of hUGP (in words) [2]: clear inhibition | IC50 [3]: 38 to 46.8 µM

Compound: O=C(Cn1c(=O)[nH]c2ccccc2c1=O)NCCc1c[nH]c2ccccc12 [#8]
inhibition at 500 µM [1]: ≥ 80% | IC50 [1]: 78.1 to 107 µM | inhibition of hUGP (in words) [2]: little effect | decrease of hUGP activity [2]: less than 20% | inhibition at 500 µM [3]: > 95% | IC50 [3]: 120 to 151 µM

Compound: O=c1ccn([C@@H]2O[C@H](COP(=O)(O)OP(=O)(O)OP(=O)(O)O)[C@@H](O)[C@H]2O)c(=O)[nH]1 [UTP, uridine triphosphate, reference compound]
Kd [4]: 89 µM | Km [5]: 100 µM

Compound: LmUSP F383R mutant (Leishmania major; F383R)
Km ([6]; other: LmUSP F383R): 364.00 ± 22.20 µM | Vmax ([6]; other: LmUSP F383R): 14.8 µmol/min/mg | kcat ([6]; other: LmUSP F383R): 17.3 s⁻¹ | kcat/Km ([6]; other: LmUSP F383R): 47000 M⁻¹ s⁻¹

Compound: LmUSP V199W mutant (Leishmania major; V199W)
Km ([6]; other: LmUSP V199W): 1007.25 ± 18.03 µM | Vmax ([6]; other: LmUSP V199W): 76.8 µmol/min/mg | kcat ([6]; other: LmUSP V199W): 90.2 s⁻¹ | kcat/Km ([6]; other: LmUSP V199W): 89000 M⁻¹ s⁻¹

Compound: LmUSP V330W mutant (Leishmania major; V330W)
Km ([6]; other: LmUSP V330W): 1255.00 ± 145.66 µM | Vmax ([6]; other: LmUSP V330W): 272 µmol/min/mg | kcat ([6]; other: LmUSP V330W): 319 s⁻¹ | kcat/Km ([6]; other: LmUSP V330W): 255000 M⁻¹ s⁻¹

Compound: LmUSP V330W/F383R mutant (Leishmania major; F383R/V330W)
Km ([6]; other: LmUSP V330W/F383R): 276.45 ± 51.26 µM | Vmax ([6]; other: LmUSP V330W/F383R): 21.8 µmol/min/mg | kcat ([6]; other: LmUSP V330W/F383R): 25.6 s⁻¹ | kcat/Km ([6]; other: LmUSP V330W/F383R): 93000 M⁻¹ s⁻¹

Compound: LmUSP wild type (Leishmania major)
Km ([6]; other: wild-type LmUSP): 529.20 ± 24.60 µM | Vmax ([6]; other: wild-type LmUSP): 184 µmol/min/mg | kcat ([6]; other: wild-type LmUSP): 216 s⁻¹ | kcat/Km ([6]; other: wild-type LmUSP): 409000 M⁻¹ s⁻¹

More lines, now with the values ahead:

inhibition at 500 µM [1]: ≥ 80% | IC50 [1]: 135 to 175 µM | inhibition of hUGP (in words) [2]: little effect | decrease of hUGP activity [2]: less than 20% | inhibition at 500 µM [3]: > 95% | IC50 [3]: 126 to 134 µM
Compound: O=C(Cn1c(=O)[nH]c2ccccc2c1=O)Nc1ccc2[nH]ccc2c1 [#4]

IC50 [1]: > 250 µM | IC50 [3]: > 250 µM
Compound: CC(Cc1c[nH]c2ccccc12)NC(=O)Cn1c(=O)[nH]c2ccccc2c1=O (stereo not shown) [#8A]

IC50 [1]: 47.2 to 66.4 µM | inhibition of hUGP (in words) [2]: clear inhibition | IC50 [3]: 55.1 to 69.1 µM
Compound: O=C(Cn1c(=O)[nH]c2ccccc2c1=O)NCCc1c[nH]c2ccc(Cl)cc12 [#8B]

IC50 [1]: > 250 µM | IC50 [3]: > 250 µM
Compound: COc1ccc2[nH]cc(CCNC(=O)Cn3c(=O)[nH]c4ccccc4c3=O)c2c1 [#8C]

IC50 [1]: 170 to 195 µM | inhibition of hUGP (in words) [2]: clear inhibition | IC50 [3]: 193 to 242 µM
Compound: O=C(Cn1cnc2ccccc2c1=O)NCCc1c[nH]c2ccc(Cl)cc12 [#8D]

Kd [4, 7]: 83.3 µM | Primary Binding Response [4]: 0.127
Compound: O=C(O)Cc1cccc(C(F)(F)F)c1 [DDD00095351]

Kd [4, 7]: 72.6 µM | Primary Binding Response [4]: 0.077
Compound: COCCNC(=O)n1c(=O)oc2ccccc21 [DDD00102262]

Kd [4, 7]: 67.6 µM | Primary Binding Response [4]: 0.1728
Compound: Cn1c(=O)n(CCN)c(=O)c2ccccc21 [DDD00808259]

Kd [4, 7]: 60.1 µM | Primary Binding Response [4]: 0.1541
Compound: CC(C(=O)O)c1cccc(F)c1 (stereo not shown) [DDD01305586]
